Assay results published in patent US12643913B2, “Mcl-1 inhibitor formulations” (AMGEN INC., priority 2020, dated 2026).
“Also recorded” adds a separate entry of the source.

Assays:
[1] = Moisture sorption profile (DVS); format: physicochemical; conditions: by 95% RH; listed as amorphous AMG 397
Protocol: Moisture Sorption: Moisture sorption data was collected using a Surface Measurement Systems DVSAdvantage instrument. Equilibrium criteria were set at ±0.001% weight change in 10 minutes with a maximum equilibrium time of 380 minutes.
Moisture Sorption: Moisture sorption data was collected using a Surface Measurement Systems DVSAdvantage instrument. Equilibrium criteria were set at ±0.001% weight change in 10 minutes with a maximum equilibrium time of 360 minutes.

[2] = Chemical stability of amorphous solid dispersions (HPLC: LCAP, total impurities) through processing and on storage; format: physicochemical; conditions: all storage conditions
Protocol: The chemical and physical stability of AMG 397 50% drug load ASDs generated by spray drying from THF was monitored over 4 weeks under accelerated conditions. Chemical stability was measured by HPLC and physical stability by XRPD, DSC and TGA. Samples were stored at 40° C./75% RH open, 40° C./75% RH closed, 25° C./60% RH closed, and 5° C. closed. All samples were tested after storage for 4 weeks except for the 40° C./75% RH open condition that was also tested at weeks 1 and 2. The THF ASD samples had significant degradation at TO due to the use of THF as the spray solvent. […] Unlike the amorphous DS, the ASD samples were stable when stored at 5° C. for 4-weeks.
Two further amorphous solid dispersions (ASD) were therefore prepared by spray-drying using DCM as the solvent in place of THF. Soluplus was used to prepare both these dispersions due to its improved stability over HPMC-AS ASDs generated from THF. Two drug loads were investigated, 25% and 50%.
The chemical stability of AMG 397 Soluplus ASDs generated by spray drying using DCM was monitored during each processing step to ensure that no degradation occurred during spray-drying or secondary drying. Samples were also stored for 4 weeks under the following conditions: 5° C. closed, 25° C. closed, 25°,C/60% RH closed, 25° C./60% RH open, 40° C./75% RH open and 40° C./75% RH closed. […]

[3] = Clinical observations in the beagle dog PK study; format: in vivo, male beagle dogs; conditions: 3 mg/kg PO, individual dogs
Protocol: Briefly, during each phase five male beagle dogs were assigned to each group of the study. All animals were fasted for at least eight hours prior to dosing and through the first four hours of blood sample collection for each phase. Food was returned within 30 minutes following collection of the last blood sample at the four-hour collection interval. Each animal in Phase 1, received a single oral (PO) gavage dose of the appropriate test article formulation as outlined in the study design Table 6. Oral gavage dosing formulations were continuously stirred throughout dosing. The gavage tube was rinsed with approximately 10 mL of tap water following dosing (prior to removal of the gavage tube). Following each study phase a 7-day washout period was allowed prior to the dosing of the next phase. The same five dogs were assigned to either group 1 or group 2 formulations for the duration of the study.
Test Article Administration: A total of 10 male beagle dogs were initially assigned to study. All animals were fasted for at least eight hours prior to dosing and through the first four hours of blood sample collection for each phase, where applicable (food will be returned within 30 minutes following collection of the last blood sample at the four hour collection interval, where applicable). Total fasting time […] 24 hours.
Different pre-treatments were assigned for each phase of the study to mimic several scenarios: • 1. No pre-treatment was administered for Phase 1 as it served as a control. • 2. During Phase 2, at 1 hour 54 minutes to 1 hour 58 minutes prior to dose administration, all animals were pretreated with two 20 mg (40 mg total) oral tablets of famotidine followed by a 10 mL dose of deionized water. […] This was used to determine the role of stomach pH on exposure. • 3. During Phases 3 and 4, at 30 to 38 minutes prior to dose administration, all animals were pretreated with a single intramuscular dose of pentagastrin in phosphate buffered saline, pH 7.4, at a dose level of 0.006 mg/kg and a dose volume of 0.05 mL/kg. The pentagastrin dose was used to ensure that the dogs stomach pH was normalized to pH ˜2.0 as it is known that the dogs stomach pH is often higher than that of humans under resting conditions. • 4. In addition, […], at 1 hour 3 minutes to 1 hour 6 minutes prior to dose administration and 4 hours 10 minutes to 4 hours 11 minutes following dose by oral gavage at a dose level of 3 mg/kg and a dose volume of 4 mL/kg. This final phase was used to study if P-gp played a role in absorption.

[4] = 2-stage micro-dissolution (faSSGF then faSSIF), amorphous vs crystalline hydrate; format: physicochemical
Protocol: A 2-stage micro-dissolution experiment was performed to compare the dissolution of the amorphous AMG 397 drug substance to the crystalline hydrate form of AMG 397, as shown in FIG. 5. […] Upon dilution with fasted simulated intestinal fluid (faSSIF, pH 6.0 after dilution) the concentration of the amorphous material was seen to drop before increasing over the next 10 minutes and reaching a plateau. No precipitation of the amorphous material was observed, and it maintained at 5× higher concentration than the crystalline hydrate form of AMG 397 for the duration of the experiment. […] Unlike the amorphous material no further dissolution occurred once the media was switched to faSSIF.

Moisture sorption weight gain [1]: ~6.4% | Change of total impurities at 4-weeks [2]: Increases in total impurities | Positive clinical findings (observation) ([3]; Phase 1 (Days 1 to 7), no pre-treatment): Yellow, frothy vomitus | Positive clinical findings (observation) ([3]; Phase 4 (Days 22 to 24), pentagastrin pre-treatment and inhibitor GF120918 pre- and post-treatment): Small amount of white, | Concentration relative to the crystalline hydrate form ([4]; after dilution with faSSIF (pH 6.0), maintained for the duration of the experiment): 5 × | Concentration relative to the crystalline hydrate form ([4]; simulated gastric fluid (faSSGF), after 20 minutes): ~8 ×
Compound: CO[C@]1(CN2CCN3CCCC[C@@H]3C2)/C=C/C[C@H](C)[C@@H](C)S(=O)(=O)NC(=O)c2ccc3c(c2)N(C[C@@H]2CC[C@H]21)C[C@@]1(CCCc2cc(Cl)ccc21)CO3 [AMG 397 Amorphous]
Positive clinical findings (observation) ([3]; Phase 2 (Days 8 to 14), famotidine pre-treatment): White, frothy vomitus; also recorded: Soft feces; also recorded: Yellow, frothy vomitus | Positive clinical findings (observation) ([3]; Phase 3 (Days 15 to 21), pentagastrin pre-treatment): Salivation; also recorded: White, frothy vomitus; also recorded: Yellow, frothy vomitus | Positive clinical findings (observation) ([3]; Phase 5 (Days 71 to 73), inhibitor GF120918 pre- and post-treatment, 3 mg/kg): Salivation; also recorded: Watery feces; also recorded: Yellow, frothy vomitus; also recorded: Yellow, discolored feces; also recorded: Mucoid feces; also recorded: Tan, frothy vomitus
